From patent US9695155B2, “Herbicidal substituted pyrimidinyloxy benzene compounds” (E. I. DU PONT DE NEMOURS AND COMPANY, priority 2013, dated 2017)

How the values were obtained:
wild poinsettia = assay: Test E preemergence; format: in vivo, Euphorbia heterophylla; conditions: for Poinsettia, Wild plant response rating: scale 0 to 100 (0 no effect, 100 complete control); for Plant response rating, Poinsettia, Wild: scale 0 to 100, 0 no effect, 100 complete control
In short: (§1)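 Test chemicals formulated in a non-phytotoxic solvent mixture containing a surfactant were applied preemergence to seeds in silt loam soil or postemergence to plants at the 1- to 4-leaf stage in potting mix. After 14 to 21 days in a greenhouse, injury was visually rated against controls on a 0-100 scale (0 = no effect, 100 = complete control).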

yellow nutsedge = assay: Test E preemergence; format: in vivo, Cyperus esculentus; conditions: for Nutsedge, Yellow plant response rating: scale 0 to 100 (0 no effect, 100 complete control); for Plant response rating, Nutsedge, Yellow: scale 0 to 100, 0 no effect, 100 complete control
In short: as §1

soybean = assay: Test E postemergence; format: in vivo, Glycine max
In short: as §1

corn = assay: Test E preemergence; format: in vivo, Zea mays; conditions: for Corn plant response rating: scale 0 to 100 (0 no effect, 100 complete control); for Plant response rating, Corn: scale 0 to 100, 0 no effect, 100 complete control
In short: as §1

palmer pigweed = assay: Test E preemergence; format: in vivo, Amaranthus palmeri; conditions: for Pigweed, Palmer plant response rating: scale 0 to 100 (0 no effect, 100 complete control); for Plant response rating, Pigweed, Palmer: scale 0 to 100, 0 no effect, 100 complete control
In short: as §1

waterhemp = assay: Test E preemergence; format: in vivo, Amaranthus rudis; conditions: for Waterhemp plant response rating: scale 0 to 100 (0 no effect, 100 complete control); for Plant response rating, Waterhemp: scale 0 to 100, 0 no effect, 100 complete control
In short: as §1

goosegrass = assay: Test E preemergence; format: in vivo, Eleusine indica; conditions: for Goosegrass plant response rating: scale 0 to 100 (0 no effect, 100 complete control); for Plant response rating, Goosegrass: scale 0 to 100, 0 no effect, 100 complete control
In short: as §1

barnyardgrass = assay: Test E postemergence; format: in vivo, Echinochloa crus-galli
In short: as §1

large (Lg) crabgrass = assay: Test E preemergence; format: in vivo, Digitaria sanguinalis; conditions: for Crabgrass, Large plant response rating: scale 0 to 100 (0 no effect, 100 complete control); for Plant response rating, Crabgrass, Large: scale 0 to 100, 0 no effect, 100 complete control
In short: as §1

fall panicum = assay: Test E postemergence; format: in vivo, Panicum dichotomiflorum
In short: as §1

sandbur = assay: Test E preemergence; format: in vivo, Cenchrus echinatus; conditions: for Sandbur plant response rating: scale 0 to 100 (0 no effect, 100 complete control); for Plant response rating, Sandbur: scale 0 to 100, 0 no effect, 100 complete control
In short: as §1

sedge, umbrella = assay: Test C flooded paddy test; format: in vivo, Cyperus difformis; conditions: Flood, scale 0 to 100 (0 no effect, 100 complete control), 13 to 15 days
In short: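 Under a constant 3 cm flood, test compounds went directly into the paddy water. Following 13 to 15 days of greenhouse growth, treated species and controls were compared by eye.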

[1] = Postemergence, 31 g ai/ha, scale 0 to 100
[2] = Postemergence, 62 g ai/ha, scale 0 to 100
[3] = Postemergence, 125 g ai/ha, scale 0 to 100
[4] = Postemergence, 250 g ai/ha, scale 0 to 100
[5] = postemergence, 16 g ai/ha, scale 0 to 100, 0 no effect, 100 complete control

N#Cc1cnn(-c2c(C#N)cccc2Oc2ncc(Cl)cn2)c1 [Compound 200]
80: Plant response rating, Goosegrass (goosegrass; 125 g ai/ha) | Plant response rating, Crabgrass, Large (large (Lg) crabgrass; 125 g ai/ha) | Plant response rating, Sedge, Umbrella (sedge, umbrella; 62 g ai/ha)
75: Plant response rating, Corn (corn; 250 g ai/ha)
50: Poinsettia, Wild plant response rating (wild poinsettia; 31 g ai/ha) | Poinsettia, Wild plant response rating (wild poinsettia; 62 g ai/ha) | Plant response rating, Panicum, Fall (fall panicum; [3]) | Plant response rating, Panicum, Fall (fall panicum; [4])
0: Nutsedge, Yellow plant response rating (yellow nutsedge; 31 g ai/ha) | Nutsedge, Yellow plant response rating (yellow nutsedge; 62 g ai/ha) | Corn plant response rating (corn; 16 g ai/ha) | Plant response rating, Barnyardgrass (barnyardgrass; [1]) | Plant response rating, Barnyardgrass (barnyardgrass; [2]) | Plant response rating, Barnyardgrass (barnyardgrass; [5]) | Sandbur plant response rating (sandbur; 31 g ai/ha) | Plant response rating, Sedge, Umbrella (sedge, umbrella; 31 g ai/ha)
90: Plant response rating, Poinsettia, Wild (wild poinsettia; 125 g ai/ha) | Plant response rating, Goosegrass (goosegrass; 250 g ai/ha) | Plant response rating, Sedge, Umbrella (sedge, umbrella; 125 g ai/ha) | Plant response rating, Sedge, Umbrella (sedge, umbrella; 250 g ai/ha)
20: Plant response rating, Barnyardgrass (barnyardgrass; [3]) | Plant response rating, Panicum, Fall (fall panicum; [2])
5: Corn plant response rating (corn; 31 g ai/ha) | Goosegrass plant response rating (goosegrass; 31 g ai/ha) | Crabgrass, Large plant response rating (large (Lg) crabgrass; 16 g ai/ha) | Sandbur plant response rating (sandbur; 62 g ai/ha)
100: Pigweed, Palmer plant response rating (palmer pigweed; 62 g ai/ha) | Plant response rating, Pigweed, Palmer (palmer pigweed; 125 g ai/ha) | Plant response rating, Pigweed, Palmer (palmer pigweed; 250 g ai/ha) | Waterhemp plant response rating (waterhemp; 31 g ai/ha) | Waterhemp plant response rating (waterhemp; 62 g ai/ha) | Plant response rating, Waterhemp (waterhemp; 125 g ai/ha) | Plant response rating, Waterhemp (waterhemp; 250 g ai/ha) | Plant response rating, Crabgrass, Large (large (Lg) crabgrass; 250 g ai/ha)
40: Plant response rating, Nutsedge, Yellow (yellow nutsedge; 125 g ai/ha) | Pigweed, Palmer plant response rating (palmer pigweed; 31 g ai/ha) | Plant response rating, Barnyardgrass (barnyardgrass; [4]) | Plant response rating, Sandbur (sandbur; 125 g ai/ha)
65: Crabgrass, Large plant response rating (large (Lg) crabgrass; 62 g ai/ha)
60: Goosegrass plant response rating (goosegrass; 62 g ai/ha)
95: Plant response rating, Poinsettia, Wild (wild poinsettia; 250 g ai/ha) | Plant response rating, Soybean (soybean; [1]) | Plant response rating, Soybean (soybean; [2]) | Plant response rating, Soybean (soybean; [3]) | Plant response rating, Soybean (soybean; [5])
98: Plant response rating, Soybean (soybean; [4])
70: Plant response rating, Nutsedge, Yellow (yellow nutsedge; 250 g ai/ha) | Plant response rating, Sandbur (sandbur; 250 g ai/ha)
10: Plant response rating, Panicum, Fall (fall panicum; [1]) | Plant response rating, Panicum, Fall (fall panicum; [5])
35: Crabgrass, Large plant response rating (large (Lg) crabgrass; 31 g ai/ha)
30: Corn plant response rating (corn; 62 g ai/ha) | Plant response rating, Corn (corn; 125 g ai/ha)
